Source: US10875863B2, “RIPK2 inhibitors and method of treating cancer with same” (University Health Network, priority 2014, dated 2020)

Columns and labels:
IL-12 p70 = IL-12 p70 in dendritic cell culture supernatants by ELISA; assay type: cell-based, mouse; details: supernatants from LPS ± MDP stimulation
Description: (§1) IL-12-yellow fluorescent protein (YFP) reporter mouse bone marrow dendritic cells were stimulated for 24 hours with 0.3 ng/ml LPS±1 μg/ml MDP (i.e., NOD2 agonist) in the presence of Example A3 (FIG. 2A). IL-12-yellow fluorescent protein (YFP) reporter mouse bone marrow dendritic cells were stimulated for 24 hours with 0.3 μg/ml Pam3Cys±1 μg/ml MDP (i.e., NOD2 agonist) in the presence of Example A3 (FIG. 2B). […] Data are represented as the mean±SEM of triplicate measurements. Levels of IL-12 p70 (FIG. 2C, left panel) and TNFα (FIG. 2C, right panel) in the cell culture supernatants from A were measured by ELISA techniques with commercially available kits. […] Data are represented as the mean±SEM of triplicate measurements.

TNFα = TNFα in dendritic cell culture supernatants by ELISA; assay type: cell-based, mouse; details: supernatants from LPS ± MDP stimulation
Description: as §1

HCT116 xenografts = test: In vivo response of HCT116 xenografts, tolerability and body weight; set-up: species or system CB-17 SCID mice; details: SCID mice with HCT116 xenografts
Description: HCT116 colon cancer cells were purchased from ATCC (American Type Culture Collections) and cultured in DMEM (Dulbecco's Modified eagle medium—purchased from GIBCO) supplemented with 10% fetal calf serum. Five million cells were injected subcutaneously in the right flank of 6-8 week old male CB-17 SCID mice. When the mean tumor volume reached 80-120 mm^3, mice were randomized into 5 groups (n=5) and received either vehicle (10% NMP, 40% PEG, 50% H2O) or compound at the doses indicated.
Tumor volume and body weight were measured three times weekly. Tumor volume was calculated by the following formula: x^2y/2. Percent tumor growth inhibition after initiation of treatment with compound was calculated by: TGI=100×1−(tumor volumefinal−tumor volumeinitial for compound treated group)/(tumor volumefinal−tumor volumeinitial for […] control group).

[1] = system: IL-12-yellow fluorescent protein (YFP) reporter mouse bone marrow dendritic cells; test: IL-12-YFP reporter dendritic cells, flow cytometric analysis; assay type: cell-based; details: 24 hours, LPS or Pam3Cys ± 1 μg/ml MDP
Description: as §1

Cc1ccccc1-c1cc2nc(Nc3cccc(N4CCOCC4)c3)ncc2[nH]1 [Example A3, N-(3-morpholinophenyl)-6-(o-tolyl)-5H-pyrrolo[3,2-d]pyrimidin-2-amine]
levels of IL-12 p70 in cell culture supernatants (IL-12 p70): dose-dependent reduction | levels of TNFα in cell culture supernatants (TNFα): dose-dependent reduction | mean body weight loss (HCT116 xenografts; 92 mg/kg Q.D. p.o.): 7.8% | tolerability (HCT116 xenografts; Q.D. p.o., 18 days): well tolerated | mean body weight loss in the treated arms compared to control (HCT116 xenografts; treated arms versus control): less than 6% | cell viability as assessed by 7AAD exclusion [1]: no measurable effect | percentage of YFP positive cells (IL-12 positive cells) [1]: minimal effect | mean fluorescence intensity YFP (amount of IL-12) ([1]; effect MDP-dependent): dose-dependent reduction
